Like-named read-outs stand apart in the source and are kept apart here.
Tests used:
[1] = biological target: T1, human recombinant histamine H1 receptor (Homo sapiens, UniProt P35367); assay: Histamine H1 radioligand binding ([3H]Pyrilamine); details: for inhibition at 0.03 µM: 0.03 μM compound; for inhibition at 0.1 µM: 0.1 μM compound; for inhibition at 0.01 µM: 10 nM (0.01 μM) compound
T1 construct: expressed in transfected cells; host or cells: CHO cells
How it was run: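 CHO-expressed receptor in modified Tris-HCl buffer (50 mM, pH 7.4; 2 mM MgCl2, 100 mM NaCl, 250 mM sucrose); bound ligand measured after filtration and washing.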

[2] = biological target: T2, human recombinant adrenergic α2B receptor (Homo sapiens, UniProt P18089); assay: Adrenergic α2B radioligand binding ([3H]Rauwolscine); set-up: Inhibition of ligand binding, Adren. alpha2B: concentration or dose not given beside the values; details: percent inhibition of specific binding
T2 construct: expressed in transfected cells; host or cells: CHO-K1 cells
T2 sequence (P18089 1-450): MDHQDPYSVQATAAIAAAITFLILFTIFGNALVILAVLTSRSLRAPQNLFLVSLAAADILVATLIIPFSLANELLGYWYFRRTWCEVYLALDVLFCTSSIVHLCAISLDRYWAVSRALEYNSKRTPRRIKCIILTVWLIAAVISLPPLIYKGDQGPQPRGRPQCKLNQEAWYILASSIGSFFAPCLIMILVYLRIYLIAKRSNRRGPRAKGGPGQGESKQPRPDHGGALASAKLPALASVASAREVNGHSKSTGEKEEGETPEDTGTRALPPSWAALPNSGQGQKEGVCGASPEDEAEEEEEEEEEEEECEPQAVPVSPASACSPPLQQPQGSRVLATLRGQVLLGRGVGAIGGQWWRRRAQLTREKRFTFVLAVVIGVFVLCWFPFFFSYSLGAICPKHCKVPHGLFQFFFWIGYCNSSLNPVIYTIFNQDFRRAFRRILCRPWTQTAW
Procedure: To evaluate in radioligand binding assays the activity of compounds of the invention, human recombinant adrenergic α2B receptor expressed in Chinese hamster ovary (CHO-K1) cells (Uhlen S et al. Eur J. Pharmacol. 343(1):93, 1998) in a modified Tris-HCl buffer (50 mM Tris-HCl, pH 7.4, 12.5 mM MgCl2, 1 mM EDTA, 0.2% BSA) was used. Compounds of the invention were incubated with 2.5 nM [^3H]Rauwolscine for 60 minutes at 25° C. Non-specific binding was estimated in the presence of 10 μM Prozosin. Receptor proteins were filtered and washed, the filters were then counted to determine [^3H]Rauwolscine specifically bound. […] Biochemical assay results are presented as the percent inhibition of specific binding in Table 6.

[3] = biological target: T3, human recombinant serotonin (5-Hydroxytryptamine) 5-HT2A receptor (Homo sapiens, UniProt P28223); assay: Serotonin 5-HT2A radioligand binding ([3H]Ketanserin); set-up: Inhibition of ligand binding, Ser. 5-HT2A: concentration or dose not given beside the values; details: percent inhibition of specific binding
T3 construct: expressed in transfected cells; host or cells: CHO-K1 cells
Procedure: Compounds of the invention were incubated with 0.5 nM [^3H]Ketanserin for 60 minutes at 25° C. Non-specific binding was estimated in the presence of 1 μM Mianserin. Receptor proteins were filtered and washed, the filters were then counted to determine [^3H]Ketanserin specifically bound. […] Biochemical assay results are presented as the percent inhibition of specific binding in Table 6.

[4] = biological target: T4, human recombinant serotonin (5-Hydroxytryptamine) 5-HT2C receptor (Homo sapiens, UniProt P28335); assay: Serotonin 5-HT2C radioligand binding ([3H]Mesulergine); set-up: Inhibition of ligand binding, Ser. 5-HT2C: concentration or dose not given beside the values; details: percent inhibition of specific binding
T4 construct: expressed in transfected cells; host or cells: CHO-K1 cells
T4 sequence (P28335 33-458): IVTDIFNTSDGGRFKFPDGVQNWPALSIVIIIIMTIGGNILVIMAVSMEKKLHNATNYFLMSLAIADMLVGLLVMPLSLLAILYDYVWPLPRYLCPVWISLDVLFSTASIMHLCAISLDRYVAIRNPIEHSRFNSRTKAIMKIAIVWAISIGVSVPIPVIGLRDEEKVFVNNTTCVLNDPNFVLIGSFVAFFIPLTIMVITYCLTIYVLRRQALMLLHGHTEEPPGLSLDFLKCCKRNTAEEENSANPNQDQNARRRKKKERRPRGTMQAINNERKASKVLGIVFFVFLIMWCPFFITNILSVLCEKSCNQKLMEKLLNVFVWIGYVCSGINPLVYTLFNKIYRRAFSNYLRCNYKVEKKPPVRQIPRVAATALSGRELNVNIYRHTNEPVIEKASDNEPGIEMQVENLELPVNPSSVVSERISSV
Procedure: Compounds of the invention were incubated with 1 nM [^3H]Mesulergine for 60 minutes at 25° C. Non-specific binding was estimated in the presence of 1 μM Mianserin. Receptor proteins were filtered and washed, the filters were then counted to determine [^3H]Mesulergine specifically bound. […] Biochemical assay results are presented as the percent inhibition of specific binding in Table 6.

[5] = biological target: T5, human recombinant serotonin (5-Hydroxytryptamine) 5-HT6 receptor (Homo sapiens, UniProt P50406); assay: Serotonin 5-HT6 radioligand binding ([3H]LSD); set-up: Inhibition of ligand binding, Ser. 5-HT6: concentration or dose not given beside the values; details: percent inhibition of specific binding
T5 construct: expressed in transfected cells; host or cells: human HeLa cells
Text: Receptor proteins were filtered and washed, the filters were then counted to determine [3H]LSD specifically bound. […] Biochemical assay results are presented as the percent inhibition of specific binding in Table 6.

[6] = 1 μM compound, […] [3H]Pyrilamine, read-out: Histamine Binding H1, percent inhibition of specific binding
[7] = percent inhibition of specific binding, screened at 1 μM, read-out: Inhibition of ligand binding, Hist. H1
[8] = […] [3H]Pyrilamine, read-out: Histamine Binding H1, percent inhibition of specific binding

T3 sequence (P28223 whole entry): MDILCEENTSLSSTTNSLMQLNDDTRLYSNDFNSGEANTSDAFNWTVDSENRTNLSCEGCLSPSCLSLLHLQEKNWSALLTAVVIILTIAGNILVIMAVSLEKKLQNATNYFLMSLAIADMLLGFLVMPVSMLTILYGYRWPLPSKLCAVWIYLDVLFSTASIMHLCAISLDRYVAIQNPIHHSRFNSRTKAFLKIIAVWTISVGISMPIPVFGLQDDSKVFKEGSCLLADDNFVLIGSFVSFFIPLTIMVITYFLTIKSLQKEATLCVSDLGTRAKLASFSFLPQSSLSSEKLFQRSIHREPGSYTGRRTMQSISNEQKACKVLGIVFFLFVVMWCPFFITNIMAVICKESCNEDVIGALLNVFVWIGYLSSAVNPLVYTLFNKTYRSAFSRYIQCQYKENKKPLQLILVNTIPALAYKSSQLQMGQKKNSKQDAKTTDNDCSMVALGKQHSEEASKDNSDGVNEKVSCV
T5 sequence (P50406 whole entry): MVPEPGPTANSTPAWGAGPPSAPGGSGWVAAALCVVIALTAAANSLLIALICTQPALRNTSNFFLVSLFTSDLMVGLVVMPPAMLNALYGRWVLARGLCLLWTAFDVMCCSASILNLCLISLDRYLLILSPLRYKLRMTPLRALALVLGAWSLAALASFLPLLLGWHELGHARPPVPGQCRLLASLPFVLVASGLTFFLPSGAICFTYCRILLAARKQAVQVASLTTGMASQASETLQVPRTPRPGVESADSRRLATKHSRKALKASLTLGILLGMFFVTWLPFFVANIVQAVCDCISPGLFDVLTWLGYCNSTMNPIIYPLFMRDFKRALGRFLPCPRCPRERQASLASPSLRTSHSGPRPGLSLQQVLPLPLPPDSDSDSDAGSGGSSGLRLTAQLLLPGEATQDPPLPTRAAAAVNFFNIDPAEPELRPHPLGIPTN
T1 sequence (P35367 whole entry): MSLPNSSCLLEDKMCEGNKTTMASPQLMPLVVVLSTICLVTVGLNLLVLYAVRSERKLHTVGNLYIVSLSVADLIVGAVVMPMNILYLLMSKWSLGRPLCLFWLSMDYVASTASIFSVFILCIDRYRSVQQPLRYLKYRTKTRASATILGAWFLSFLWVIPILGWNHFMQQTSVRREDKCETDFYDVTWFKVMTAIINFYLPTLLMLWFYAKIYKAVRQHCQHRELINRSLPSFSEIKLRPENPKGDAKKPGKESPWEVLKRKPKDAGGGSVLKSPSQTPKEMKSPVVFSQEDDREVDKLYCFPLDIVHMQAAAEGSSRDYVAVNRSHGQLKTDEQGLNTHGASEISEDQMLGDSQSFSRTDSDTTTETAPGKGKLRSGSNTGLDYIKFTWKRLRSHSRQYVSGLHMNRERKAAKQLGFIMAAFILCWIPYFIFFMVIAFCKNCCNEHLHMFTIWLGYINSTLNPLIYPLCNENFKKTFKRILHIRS

Row | Compound | inhibition at 1 µM [1, 6] | inhibition at 1 µM [1, 7] | Inhibition of ligand binding, Adren. alpha2B [2] | Inhibition of ligand binding, Ser. 5-HT2A [3] | Inhibition of ligand binding, Ser. 5-HT2C [4] | Inhibition of ligand binding, Ser. 5-HT6 [5] | inhibition at 0.03 µM [1, 8] | inhibition at 0.1 µM [1, 8] | inhibition at 0.004 µM ([1]; 4 nM compound, […] [3H]Pyrilamine, read-out: Histamine Binding H1, percent inhibition of specific binding) | inhibition at 0.02 µM ([1]; 0.02 μM compound, […] [3H]Pyrilamine, read-out: Histamine Binding H1, percent inhibition of specific binding) | inhibition at 0.01 µM [1, 8]
1 | CCN1CCc2c(c3ccccc3n2CCc2ccc(C)cc2)C1 [Compound 3, 2-ethyl-2,3,4,5-tetrahydro-5-(4-methylphenethyl)-1H-pyrido[4,3-b]indole] | 88% | 88% | 102% | 98% | 82% | 40% | – | – | – | – | –
2 | CCN1CCc2c(c3ccccc3n2CCc2ccccc2)C1 [Compound 4, 2-ethyl-2,3,4,5-tetrahydro-5-phenethyl-1H-pyrido[4,3-b]indole] | 93% | 93% | 106% | 102% | 94% | 82% | 47% | 73% | – | – | –
3 | CCN1CCc2c(c3ccccc3n2CCc2ccncc2)C1 [Compound 5] | 82% | 82% | 78% | 55% | 9% | 1% | – | – | – | – | –
4 | CCN1CCc2c(c3ccccc3n2CCc2ccccn2)C1 [Compound 6] | 32% | 32% | 54% | 74% | 34% | 7% | – | – | – | – | –
5 | CN1CCc2c(c3ccccc3n2CCc2ccncc2)C1 [Compound 10, 2,3,4,5-tetrahydro-2-methyl-5-(2-(pyridin-4-yl)ethyl)-1H-pyrido[4,3-b]indole] | 88% | 88% | 92% | 69% | 53% | 32% | – | – | – | – | –
6 | CCN1CCc2c(c3ccccc3n2Cc2ccccc2)C1 [Compound 16, 5-benzyl-2-ethyl-2,3,4,5-tetrahydro-1H-pyrido[4,3-b]indole] | 10% | 10% | 10% | 14% | 5% | 6% | – | – | – | – | –
7 | Cc1ccc(Cn2c3c(c4ccccc42)CN(C)CC3)cn1 [Compound 17, 2,3,4,5-tetrahydro-2-methyl-5-((6-methylpyridin-3-yl)methyl)-1H-pyrido[4,3-b]indole] | 15% | 15% | 9% | −7% | 8% | 0% | – | – | – | – | –
8 | CCOC(=O)N1CCc2c(c3cc(Br)ccc3n2CCc2ccc(C)nc2)C1 [Compound 18, ethyl 8-bromo-3,4-dihydro-5-(2-(6-methylpyridin-3-yl)ethyl)-1H-pyrido[4,3-b]indole-2(5H)-carboxylate] | -14% | -14% | −8% | 5% | −14% | 6% | – | – | – | – | –
9 | CCOC(=O)N1CCc2c(c3cc(-c4cccnc4)ccc3n2CCc2ccc(C)nc2)C1 [Compound 19, ethyl 3,4-dihydro-5-(2-(6-methylpyridin-3-yl)ethyl)-8-(pyridin-3-yl)-1H-pyrido[4,3-b]indole-2(5H)-carboxylate] | -3% | -3% | −8% | 2% | −17% | −5% | – | – | – | – | –
10 | Cc1ccc2c(c1)c1c(n2CCc2ccccc2)CCN(C)C1 [Compound 20, 2,3,4,5-tetrahydro-2,8-dimethyl-5-phenethyl-1H-pyrido[4,3-b]indole] | 97% | 97% | 108% | 98% | 98% | – | – | 93% | 34% | 73% | –
11 | Cc1ccc2c(c1)c1c(n2CCc2ccncc2)CCN(C)C1 [Compound 22, 2,3,4,5-tetrahydro-2,8-dimethyl-5-(2-(pyridin-4-yl)ethyl)-1H-pyrido[4,3-b]indole] | 100% | 100% | 105% | 81% | 87% | – | 63% | – | – | – | 36%
12 | Cc1ccc2c(c1)c1c(n2CCc2ccccc2F)CCN(C)C1 [Compound 34, 5-(2-fluorophenethyl)-2,3,4,5-tetrahydro-2,8-dimethyl-1H-pyrido[4,3-b]indole] | 96% | 96% | – | 99% | 96% | 104% | – | 67% | – | – | 22%
